Experimental data taken from patent US12448366B2, “Solid forms of pralsetinib” (Rigel Pharmaceuticals, Inc., priority 2020, dated 2025).
Entries after “also recorded” stand apart in the source; their conditions may differ.

Experiments:
Format in all cases: physicochemical
[1] = Cooling crystallization (Example 2C), XRPD; conditions: for XRPD Pattern (fast cool): crash cooling from 50° C. to 0° C.; for XRPD Pattern (slow cool): from 50° C. at 5° C. per hour
Method: Cooling crystallization was done in a range of solvent systems. Two cooling regimes were used: cooling from 50° C. at 5° C. per hour, and crash cooling from 50° C. to 0° C. In all experiments, solids were completely dissolved before cooling. […] Cooling in THF gave two low crystallinity solids, Solid form N (fast cooling), and solid form I (slow cooling).

[2] = Drying of free base solid forms (XRPD); conditions: 50° C., (under vacuum where stated)
[3] = Thermal treatment in DSC followed by XRPD (Example 2G); conditions: 150° C.
Text: Select solids were used for thermal treatment in DSC. Solids were heated to specified temperature and then cooled back to room temperature for analysis by XRPD.

[4] = Competitive slurry experiments between free base solid forms
[5] = Humidity exposure, 75% relative humidity at 40° C. for one week, XRPD; conditions: one week / 7 days, XRPD
[6] = Dynamic vapor sorption (DVS); conditions: for XRPD / form stability after DVS humidity cycling: XRPD before and after DVS
[7] = Evaporative crystallization (Example 2B), XRPD; conditions: evaporative crystallization at 50° C., to be confirmed by other analytical methods
Method: Supernatant from some slurries was recovered for evaporative crystallization. The solutions were evaporated to dryness at 50° C. in atmospheric pressure and then placed at 50° C. under vacuum for 1.5 hours. […] It is possible that these solids were solvates with structures that collapsed to amorphous solids upon drying. Where two experiment numbers are indicated, evaporation was at different concentration.

[8] = Short term slurries (Example 2A), XRPD; conditions: short term slurry, starting solids Pattern C
Method: Short term slurries were carried out at two temperature in 15 solvents during the initial screening. Starting solids were Pattern C. Most solids were Pattern C after slurrying. Solids converted to Pattern A in EtOH, IPA, acetone, and acetonitrile at both temperatures.
The upper phase was sticky and when filtered yielded a low amount of a solid form characterized by XRPD Pattern H.

[9] = Antisolvent crystallization (Example 2D), XRPD; conditions: for XRPD results of direct antisolvent experiments: direct addition; for XRPD results of reverse antisolvent experiments: reverse addition
Method: Antisolvent crystallization was done in various solvent systems. First, about 30 mg solid free base of Compound (I) characterized by XRPD Pattern C (solid form C) was dissolved in solvent. Then antisolvent crystallization was done either using the direct or reverse addition method. For direct addition, antisolvent was added dropwise to the solution until a slurry was formed. For reverse addition, solution was added all at once to the antisolvent. The volume of antisolvent used was 4 times the volume of solvent required to dissolve the solid. For example, if 0.15 mL solvent was required to dissolve the solid then the solution was added at once to […] antisolvent. Once solids were formed, the slurries were filtered and solids were recovered for XRPD analysis.

[10] = cooling crystallization, ACN water (8:2 vol)
[11] = cooling crystallization, DMAc:ACN (2:8 vol)
[12] = cooling crystallization, DMAc:IPA (2:8 vol)
[13] = cooling crystallization, DMSO:ACN (2:8 vol)
[14] = cooling crystallization, DMSO:IPA (2:8 vol)
[15] = cooling crystallization, MeOH chloroform (1.88:1 vol), wet solid before drying
[16] = solvent DMAc, antisolvent cyclohexane
[17] = solvent DMAc, antisolvent water

CO[C@]1(C(=O)N[C@@H](C)c2ccc(-n3cc(F)cn3)nc2)CC[C@H](c2nc(C)cc(Nc3cc(C)[nH]n3)n2)CC1 [Solid Form C, pralsetinib]
XRPD Pattern (fast cool) ([1]; cooling crystallization, 1,4-dioxane): no solids (−20° C.) | XRPD Pattern (slow cool) ([1]; cooling crystallization, 1,4-dioxane, wet solid before drying): Q (wet) | XRPD Pattern (fast cool) ([1]; cooling crystallization, 1-propanol): no solids (−20° C.) | XRPD Pattern (slow cool) ([1]; cooling crystallization, 1-propanol, wet solid before drying): A (wet) | XRPD Pattern (fast cool) [1, 10]: no solids (−20° C.) | XRPD Pattern (slow cool) [1, 10]: no solids (−20° C.) | XRPD Pattern (fast cool) [1, 11]: no solids (−20° C.) | XRPD Pattern (slow cool) [1, 11]: no solids (−20° C.) | XRPD Pattern (fast cool) [1, 12]: no solids (−20° C.) | XRPD Pattern (slow cool) [1, 12]: no solids (−20° C.) | XRPD Pattern (fast cool) [1, 13]: no solids (−20° C.) | XRPD Pattern (slow cool) [1, 13]: no solids (−20° C.) | XRPD Pattern (fast cool) [1, 14]: no solids (−20° C.) | XRPD Pattern (slow cool) [1, 14]: no solids (−20° C.) | XRPD Pattern (fast cool) ([1]; cooling crystallization, EtOAc): no solids (−20° C.) | XRPD Pattern (slow cool) ([1]; cooling crystallization, EtOAc): very few solids | XRPD Pattern (fast cool) ([1]; cooling crystallization, EtOH): no solids (−20° C.) | XRPD Pattern (slow cool) ([1]; cooling crystallization, EtOH): no solids (−20° C.) | XRPD Pattern (fast cool) ([1]; cooling crystallization, IPA): no solids (−20° C.) | XRPD Pattern (slow cool) ([1]; cooling crystallization, IPA): A (wet) | XRPD Pattern (fast cool) ([1]; cooling crystallization, IPAc): no solids (−20° C.) | XRPD Pattern (slow cool) ([1]; cooling crystallization, IPAc): no solids (−20° C.) | XRPD Pattern (fast cool) [1, 15]: D (wet) | XRPD Pattern (slow cool) [1, 15]: D (wet) | XRPD Pattern (slow cool) ([1]; cooling crystallization, MeOH): no solids (−20° C.) | XRPD Pattern (fast cool) ([1]; cooling crystallization, THF): N (wet) | XRPD Pattern (slow cool) ([1]; cooling crystallization, THF, wet solid before drying): O + I (wet) | XRPD Pattern (fast cool) ([1]; cooling crystallization, acetone): no solids (−20° C.) | behaviour upon drying at 50° C. [2]: converted to a dehydrate, Solid Form B | behaviour upon drying at 50° C. ([2]; listed as Pattern C): pattern B | behaviour upon drying at 50° C. ([2]; listed as solid form C): stable | solid form after heating to 150° C. [3]: converted to Pattern B (anhydrous); also recorded: converted to solid form B | competitive slurry in acetone and isopropanol [4]: converted to solid form A | Competitive slurry MeOH: water (1:1 vol) at 23 and 50° C. ([4]; listed as Pattern C): C stable | Competitive slurry isopropanol, MeOH:MtBE ([4]; listed as Pattern C): C converts to A | stability on exposure to 75% relative humidity at 40° C. [5]: remained stable | stability on exposure to 75% relative humidity at 40° C. ([5]; listed as Pattern C): remained unchanged | water gained during the dynamic vapor sorption measurements [6]: 1.44% | hygroscopicity (words) ([6]; DVS): not as hygroscopic as pralsetinib free base in solid form A | DVS Water Mass Change (wt. %) ([6]; Table 3E): 1.29-1.44 wt. % | XRPD / form stability after DVS humidity cycling [6]: the same | XRPD / form stability after DVS humidity cycling ([6]; listed as Solid form C): remained stable | reversible mass change by DVS ([6]; between 2-95% relative humidity): about 1.4% | total mass change observed by DVS ([6]; humidity range not given): 1.4 wt. % | XRPD Pattern ([7]; DCM, solution 37 mg/mL solvent): amorphous* | XRPD Pattern ([7]; chloroform, solution 70 mg/mL solvent): amorphous* | XRPD Pattern ([8]; EtOH, 22-23° C., dried solids): A (dry) | XRPD Pattern ([8]; EtOH, 22-23° C., wet solids): A (wet) | XRPD Pattern ([8]; IPAc, 50° C.): A + C | XRPD Pattern ([8]; chloroform, 22-23° C., dried solids): H (dry) | XRPD Pattern ([8]; chloroform, 22-23° C., wet solids): H (wet) | XRPD results of direct antisolvent experiments [9, 16]: phase sep. | XRPD results of direct antisolvent experiments [9, 17]: C + some B (wet) | XRPD results of direct antisolvent experiments ([9]; solvent THF, antisolvent water): oiling | XRPD results of reverse antisolvent experiments [9, 16]: phase sep. | XRPD results of reverse antisolvent experiments [9, 17]: C (wet) | XRPD results of reverse antisolvent experiments ([9]; solvent MeOH, antisolvent water): C (wet) | XRPD results of reverse antisolvent experiments ([9]; solvent THF, antisolvent heptane): am. (wet) | XRPD results of reverse antisolvent experiments ([9]; solvent THF, antisolvent water): C (wet)
